Source: patent US20130209522A1, “Drug Release from a Polymer-Controlled Local Antibiotic Delivery System Using a Degradable Bone Graft” (UNIVERSITY OF UTAH RESEARCH FOUNDATION, priority 2012, published 2013)
Structures can show the parent of a compound that is named as a salt. Where two headings read alike, the source gives them in different places.

Legend:
[1] = tested on: Staphylococcus aureus (ATCC 25923); assay: Zone of inhibition of antibiotic release samples; format: cell-based; conditions: released from PCL-coated allograft bone
Protocol: Zone of Inhibition. Immediately following the kinetics assay, filter paper disks (diameter=6 mm) were placed in the antibiotic release samples in the 96-well plate and dried overnight. Staphylococcus aureus (ATCC 25923 from American Type Culture Collection, Manassas, Va., USA) streaked Brain-Heart Infusion (BHI, BD cat#237500) agar plates were prepared for zone of inhibition experiments using pooled isolated colonies from blood agar plates diluted to a standard concentration (0.5 McFarland units). Subsequently, each drug-containing disk was placed on the bacterial-streaked agar […]. Plates were incubated for 18 hours at 37° C. Electronic calipers were used to measure the cleared (no bacterial growth) diameter surrounding each disk (zone of inhibition). If no measurable zone was present the diameter was recorded as zero.

[2] = cited from earlier work; for Solubility in organic solvents / Water solubility / pH induced in the surrounding: Table 3, for reference; for Solubility in organic solvents: cell wraps over several lines, first line given; for Solubility: ranking of solvents, Table 2
[3] = Tobramycin thermostability during PCL formulation (bioactivity); format: physicochemical; conditions: after inclusion in a PCL formulation; data not shown

In the case of `O=C(O)c1cn(C2CC2)c2cc(N3CCNCC3)c(F)cc2c1=O` [Ciprofloxacin], the “zones of inhibition compared to the antibiotic salts (vancomycin and oxacillin)” value [1] is reported as “enhanced zones of inhibition”.
In the case of `Cc1onc(-c2ccccc2)c1C(=O)N[C@@H]1C(=O)N2[C@@H]1SC(C)(C)[C@@H]2C(=O)O` [Oxacillin], the “Solubility in organic solvents” value [2] is given as “High: MeOH,”, the Water solubility [2] is given as “(13.9 mg/ml” and the “pH induced in the surrounding” value [2] is given as “High”.
For `CO[C@H]1/C=C/O[C@@]2(C)Oc3c(C)c(O)c4c(O)c(c(/C=N/N5CCN(C)CC5)c(O)c4c3C2=O)NC(=O)/C(C)=C\C=C\[C@H](C)[C@H](O)[C@@H](C)[C@@H](O)[C@@H](C)[C@H](OC(C)=O)[C@@H]1C` [Rifampin], the “zones of inhibition compared to the antibiotic salts (vancomycin and oxacillin)” value [1] is listed as “enhanced zones of inhibition” and the “Solubility in organic solvents” value [2] is listed as “DMSO, CHCl3,”.
For `NC[C@H]1O[C@H](O[C@H]2[C@H](O)[C@@H](O[C@H]3O[C@H](CO)[C@@H](O)[C@H](N)[C@H]3O)[C@H](N)C[C@@H]2N)[C@H](N)C[C@@H]1O` [Tobramycin], the thermostability during formulation [3] is listed as “no loss in bioactivity”, the “Solubility in organic solvents” value [2] is listed as “EtOH” and the Water solubility [2] is listed as “(538 mg/ml”. The “pH induced in the surrounding” value [2] was “Low”, the solubility in alcohols ([2]; in words) was “marginally soluble” and the solubility in water ([2]; in words) was “very water-soluble”. The solubility in water ([2]; in words, listed as tobramycin) was “highly soluble”.
In the case of `CN[C@H](CC(C)C)C(=O)N[C@H]1C(=O)N[C@@H](CC(N)=O)C(=O)N[C@H]2C(=O)N[C@H]3C(=O)N[C@H](C(=O)N[C@H](C(=O)O)c4cc(O)cc(O)c4-c4cc3ccc4O)[C@H](O)c3ccc(c(Cl)c3)Oc3cc2cc(c3O[C@@H]2O[C@H](CO)[C@@H](O)[C@H](O)[C@H]2O[C@H]2C[C@](C)(N)[C@H](O)[C@H](C)O2)Oc2ccc(cc2Cl)[C@H]1O` [Vancomycin HCL], the Solubility [2] is given as “water >>> chloroform & ethanol”.
In the case of `CN[C@H](CC(C)C)C(=O)N[C@H]1C(=O)N[C@@H](CC(N)=O)C(=O)N[C@H]2C(=O)N[C@H]3C(=O)N[C@H](C(=O)N[C@H](C(=O)O)c4cc(O)cc(O)c4-c4cc3ccc4O)[C@H](O)c3ccc(c(Cl)c3)Oc3cc2cc(c3O[C@@H]2O[C@H](CO)[C@@H](O)[C@H](O)[C@H]2O[C@H]2C[C@](C)(N)[C@H](O)[C@H](C)O2)Oc2ccc(cc2Cl)[C@H]1O` [Vancomycin], the “Solubility in organic solvents” value [2] is given as “DMSO”.
For Tobramycin Sulfate, the Solubility [2] is listed as “water >>> acetone >> ethanol”.
